Measured values as given in ChEMBL document CHEMBL1151989, “Antineoplastic agents. 578. Synthesis of stilstatins 1 and 2 and their water-soluble prodrugs” (J Nat Prod, 2009).
≈ marks a conversion by molar mass, not a printed value.

Columns and labels:
BXPC-3 = experiment: Antitumor activity against human BxPC3 cells by sulforhodamine B assay; assay type: functional
MCF7 = experiment: Antitumor activity against human MCF7 cells by sulforhodamine B assay; assay type: functional
SF-268 = experiment: Antitumor activity against human SF268 cells by sulforhodamine B assay; assay type: functional
NCI-H460 = experiment: Antitumor activity against human NCI-H460 cells by sulforhodamine B assay; assay type: functional
KM-20L2 = experiment: Antitumor activity against human KM20L2 cells by sulforhodamine B assay; assay type: functional
DU-145 = experiment: Antitumor activity against human DU145 cells by sulforhodamine B assay; assay type: functional
KAT-4 = experiment: (§1) Antitumor activity against human KAT4 cells by sulforhodamine B assay; assay type: functional
SW-1736 = experiment: Antitumor activity against human SW1736 cells by sulforhodamine B assay; assay type: functional
P388 = experiment: In vitro growth inhibition against mouse P388 cells
[1] = as §1; assay type: functional; details: KAT-4
[2] = Aqueous solubility of compound in water; assay type: physicochemical

GI50 (BXPC-3)	GI50 (MCF7)	GI50 (NCI-H460)	GI50 (DU-145)	GI50 (SW-1736)	Compound	GI50 (SF-268)	GI50 (KM-20L2)	GI50 (KAT-4)	ED50 (P388)	GI50 [1]	solubility [2]
> 10 mg/L	> 10 mg/L	0.51 mg/L	> 10 mg/L	1.7 mg/L	Manganese Stilstatin 2 2',3,3'-O-Triphosphate	3.6 mg/L	> 10 mg/L	> 10 mg/L	–	–	–
5.8 mg/L	0.36 mg/L	0.35 mg/L	0.82 mg/L	–	COc1cc(/C=C\c2ccc(OC)c(OP(=O)([O-])[O-])c2OP(=O)([O-])[O-])cc(OP(=O)([O-])[O-])c1OC.[Li+].[Li+].[Li+].[Li+].[Li+].[Li+]	0.76 mg/L	6.1 mg/L	–	0.028 mg/L	–	–
1.2 mg/L	0.3 mg/L	0.3 mg/L	0.26 mg/L	–	COc1cc(/C=C\c2ccc(OC)c(OP(=O)([O-])[O-])c2OP(=O)([O-])[O-])cc(OP(=O)([O-])[O-])c1OC.[Na+].[Na+].[Na+].[Na+].[Na+].[Na+]	0.34 mg/L	3.1 mg/L	–	0.14 mg/L	–	–
5.3 mg/L	0.39 mg/L	1.4 mg/L	0.93 mg/L	> 10 mg/L	COc1cc(/C=C\c2ccc(OC)c(OP(=O)([O-])[O-])c2OP(=O)([O-])[O-])cc2c1OCO2.[K+].[K+].[K+].[K+]	0.65 mg/L	> 10 mg/L	–	0.17 mg/L	9.6 mg/L	–
> 10 mg/L	–	3.3 mg/L	2.7 mg/L	–	COc1cc(/C=C\c2ccc(OC)c(OP(=O)([O-])[O-])c2OP(=O)([O-])[O-])cc(OC)c1OC.[Na+].[Na+].[Na+].[Na+]	–	> 10 mg/L	–	0.3 mg/L	–	–
0.39 mg/L (≈ 1.23 µM)	–	0.0006 mg/L (≈ 0.0019 µM)	0.0008 mg/L (≈ 0.00253 µM)	–	COc1ccc(/C=C\c2cc(OC)c(OC)c(OC)c2)cc1O [COMBRETASTATIN A4]	–	0.34 mg/L (≈ 1.07 µM)	–	0.0009 mg/L (≈ 0.00284 µM)	–	–
5.9 mg/L	0.5 mg/L	0.32 mg/L	0.42 mg/L	> 10 mg/L	COc1cc(/C=C\c2ccc(OC)c(OP(=O)([O-])[O-])c2OP(=O)([O-])[O-])cc(OP(=O)([O-])[O-])c1OC.[Mg+2].[Mg+2].[Mg+2]	0.63 mg/L	< 10 mg/L	–	0.064 mg/L	4.7 mg/L	–
> 10 mg/L	> 10 mg/L	> 10 mg/L	> 10 mg/L	–	COc1cc(/C=C\c2ccc(OC)c(O[Si](C)(C)C(C)(C)C)c2O[Si](C)(C)C(C)(C)C)cc(O[Si](C)(C)C(C)(C)C)c1OC	> 10 mg/L	> 10 mg/L	–	>100 mg/L	–	–
3.6 mg/L	0.38 mg/L	0.35 mg/L	0.37 mg/L	–	COc1cc(/C=C\c2ccc(OC)c(OP(=O)([O-])[O-])c2OP(=O)([O-])[O-])cc(OP(=O)([O-])[O-])c1OC.[Ca+2].[Ca+2].[Ca+2]	0.46 mg/L	5.2 mg/L	–	0.14 mg/L	–	–
2.1 mg/L	0.045 mg/L	0.41 mg/L	0.053 mg/L	–	COc1ccc(/C=C\c2cc(OC)c3c(c2)OCO3)cc1OP(=O)([O-])[O-].[Na+].[Na+]	–	3.8 mg/L	–	0.025 mg/L	–	–
> 10 mg/L	1.2 mg/L	2.7 mg/L	2.1 mg/L	–	COc1cc(/C=C\c2ccc(OC)c(OP(=O)([O-])[O-])c2OP(=O)([O-])[O-])cc2c1OCO2.[Li+].[Li+].[Li+].[Li+]	2.4 mg/L	> 10 mg/L	–	0.3 mg/L	–	–
> 10 mg/L	3.5 mg/L	3.5 mg/L	4.6 mg/L	1.3 mg/L	COc1cc(/C=C\c2ccc(OC)c(OP(=O)([O-])[O-])c2OP(=O)([O-])[O-])cc(OP(=O)([O-])[O-])c1OC.[Zn+2].[Zn+2].[Zn+2]	4.5 mg/L	> 10 mg/L	–	0.15 mg/L	> 10 mg/L	–
4.4 mg/L (≈ 13.2 µM)	–	0.74 mg/L (≈ 2.23 µM)	0.17 mg/L (≈ 0.512 µM)	–	COc1ccc(/C=C\c2cc(OC)c(OC)c(OC)c2)c(O)c1O [COMBRETASTATIN A-1]	–	–	–	0.3 mg/L (≈ 0.903 µM)	–	–
> 10 mg/L	> 10 mg/L	> 10 mg/L	> 10 mg/L	–	COc1cc(/C=C\c2ccc(OC)c(O[Si](C)(C)C(C)(C)C)c2O[Si](C)(C)C(C)(C)C)cc2c1OCO2	> 10 mg/L	> 10 mg/L	–	>10 mg/L	–	–
0.75 mg/L	0.15 mg/L	0.3 mg/L	0.22 mg/L	–	COc1cc(/C=C\c2ccc(OC)c(OP(=O)([O-])[O-])c2OP(=O)([O-])[O-])cc(OP(=O)([O-])[O-])c1OC.[K+].[K+].[K+].[K+].[K+].[K+]	0.3 mg/L	2.9 mg/L	–	0.12 mg/L	–	–
> 10 mg/L	3.4 mg/L	2.8 mg/L	2.5 mg/L	–	COc1cc(/C=C\c2ccc(OC)c(OP(=O)([O-])[O-])c2OP(=O)([O-])[O-])cc2c1OCO2.[Na+].[Na+].[Na+].[Na+]	2.8 mg/L	> 10 mg/L	–	1.4 mg/L	–	–
> 10 mg/L	3.9 mg/L	3.3 mg/L	3.9 mg/L	–	COc1cc(/C=C\c2ccc(OC)c(OP(=O)([O-])[O-])c2OP(=O)([O-])[O-])cc(OP(=O)([O-])[O-])c1OC.[Rb+].[Rb+].[Rb+].[Rb+].[Rb+].[Rb+]	4.3 mg/L	> 10 mg/L	–	0.26 mg/L	–	–
1.8 mg/L (≈ 5.65 µM)	1.6 mg/L (≈ 5.03 µM)	1.5 mg/L (≈ 4.71 µM)	1.8 mg/L (≈ 5.65 µM)	–	COc1ccc(/C=C\c2cc(O)c(OC)c(OC)c2)c(O)c1O [STILSTATIN 2]	1.6 mg/L (≈ 5.03 µM)	1.9 mg/L (≈ 5.97 µM)	–	1.7 mg/L (≈ 5.34 µM)	–	–

Compound	GI50 (BXPC-3)	GI50 (MCF7)	GI50 (NCI-H460)	GI50 (DU-145)	GI50 (SW-1736)	GI50 (SF-268)	GI50 (KM-20L2)	GI50 (KAT-4)	ED50 (P388)	GI50 [1]	solubility [2]
COc1ccc(/C=C\c2cc(OC)c(OC)c(OC)c2)cc1OP(=O)([O-])[O-].[Na+].[Na+] [FOSBRETABULIN DISODIUM]	0.23 mg/L	–	0.0004 mg/L	0.0007 mg/L	–	–	–	–	0.0029 mg/L	–	20 mg/mL
COc1ccc(/C=C\c2cc(OC)c3c(c2)OCO3)cc1O [Combretastatin A-2]	0.014 mg/L (≈ 0.0466 µM)	0.0042 mg/L (≈ 0.014 µM)	0.043 mg/L (≈ 0.143 µM)	0.0054 mg/L (≈ 0.018 µM)	–	–	0.47 mg/L (≈ 1.57 µM)	–	0.016 mg/L (≈ 0.0533 µM)	–	–
